Measured values reported in BigSolDB 2.1.

## CCOC(=O)C1(c2ccccc2)CCN(CCC(C#N)(c2ccccc2)c2ccccc2)CC1
In acetonitrile, 278.15 K
  solubility (mole fraction): 0.00208
In acetonitrile, 283.15 K
  solubility (mole fraction): 0.00256
In acetonitrile, 288.15 K
  solubility (mole fraction): 0.0033
In acetonitrile, 293.15 K
  solubility (mole fraction): 0.00386
In acetonitrile, 298.15 K
  solubility (mole fraction): 0.00492
In acetonitrile, 303.15 K
  solubility (mole fraction): 0.0059
In acetonitrile, 308.15 K
  solubility (mole fraction): 0.00738
In acetonitrile, 313.15 K
  solubility (mole fraction): 0.00941
In acetonitrile, 318.15 K
  solubility (mole fraction): 0.0126
In ethanol, 278.15 K
  solubility (mole fraction): 0.000882
In ethanol, 283.15 K
  solubility (mole fraction): 0.00109
In ethanol, 288.15 K
  solubility (mole fraction): 0.00127
In ethanol, 293.15 K
  solubility (mole fraction): 0.00154
In ethanol, 298.15 K
  solubility (mole fraction): 0.00193
In ethanol, 303.15 K
  solubility (mole fraction): 0.00227
In ethanol, 308.15 K
  solubility (mole fraction): 0.00277
In ethanol, 313.15 K
  solubility (mole fraction): 0.0034
In ethanol, 318.15 K
  solubility (mole fraction): 0.00432
In isopropanol, 278.15 K
  solubility (mole fraction): 0.000106
In isopropanol, 283.15 K
  solubility (mole fraction): 0.000155
In isopropanol, 288.15 K
  solubility (mole fraction): 0.000208
In isopropanol, 293.15 K
  solubility (mole fraction): 0.000274
In isopropanol, 298.15 K
  solubility (mole fraction): 0.000421
In isopropanol, 303.15 K
  solubility (mole fraction): 0.000601
In isopropanol, 308.15 K
  solubility (mole fraction): 0.000838
In isopropanol, 313.15 K
  solubility (mole fraction): 0.00114
In isopropanol, 318.15 K
  solubility (mole fraction): 0.00156
In methanol, 278.15 K
  solubility (mole fraction): 0.00341
In methanol, 283.15 K
  solubility (mole fraction): 0.00419
In methanol, 288.15 K
  solubility (mole fraction): 0.00501
In methanol, 293.15 K
  solubility (mole fraction): 0.0063
In methanol, 298.15 K
  solubility (mole fraction): 0.00759
In methanol, 303.15 K
  solubility (mole fraction): 0.00952
In methanol, 308.15 K
  solubility (mole fraction): 0.0118
In methanol, 313.15 K
  solubility (mole fraction): 0.0147
In methanol, 318.15 K
  solubility (mole fraction): 0.0186
In water, 278.15 K
  solubility (mole fraction): 4.09e-06
In water, 283.15 K
  solubility (mole fraction): 5.3e-06
In water, 288.15 K
  solubility (mole fraction): 6.84e-06
In water, 293.15 K
  solubility (mole fraction): 9.18e-06
In water, 298.15 K
  solubility (mole fraction): 1.14e-05
In water, 303.15 K
  solubility (mole fraction): 1.48e-05
In water, 308.15 K
  solubility (mole fraction): 1.91e-05
In water, 313.15 K
  solubility (mole fraction): 2.54e-05
In water, 318.15 K
  solubility (mole fraction): 3.28e-05
